Measurements published in patent publication US4853410A, “Hydroxyacetic acid derivatives for the treatment of diabetic complications” (Pfizer Inc., priority 1987, dated 1989).
Where two headings read alike, the source gives them in different places. Blank lines part the entries; values can stand above or below the molecule they belong to.

Biological target: T1, aldose reductase enzyme (Homo sapiens, UniProt P15121)
T1 construct: partially purified aldose reductase enzyme obtained from human placenta; from tissue; host or cells: human placenta
Assay: in vitro inhibition of aldose reductase enzyme activity (procedure of U.S. Pat. No. 3,821,383, based on Hayman et al.)
Type: biochemical
Text: The substrate employed is partially purified aldose reductase enzyme obtained from human placenta.

IC50: ~51 nM
Structure (SMILES): C[C@@H]1C[C@@](O)(CC(=O)O)c2cc([N+](=O)[O-])c(Cl)cc2O1 (relative stereo) [Example 82, 7-Chloro-6-nitro-c-4-hydroxy-r-2-methylchroman-4-acetic acid]

inhibition at 10 µM (at 10^-5 M, partially purified aldose reductase from human placenta, read-out: percent inhibition of enzyme activity): 37%
Structure (SMILES): C[C@@H]1C[C@@](O)(CC(=O)O)c2cc(Cl)c(Cl)cc2S1(=O)=O (relative stereo) [Example 113, 6,7-Dichloro-c-4-hydroxy-r-2-methyl-3,4-dihydro-2H-1-thianaphthalene-4-acetic Acid 1,1-Dioxide]

IC50 (read-out: IC50, inhibition concentration calculated to show 50% inhibition of enzyme activity, partially purified aldose reductase from human placenta): ~860 nM
Structure (SMILES): C[C@@H]1C[C@@](O)(CC(=O)O)c2cc(Cl)ccc2O1 (relative stereo) [Example 15, 6-Chloro-c-4-hydroxy-r-2-methylchroman-4-acetic Acid]
